Paper PMC9596378, “Discovery and molecular basis of subtype-selective cyclophilin inhibitors” (Nature Chemical Biology, 2022)
Like-named read-outs stand apart in the source and are kept apart here.

Tests used:
Cyp40 = Cyp40 (Homo sapiens, UniProt Q08752); experiment: Chymotrypsin coupled prolyl-isomerase assay
Description: (§1) Adapting a previously described protocol, with an Agilent Bravo Velocity 11 with a 384ST head, 90 µL assay buffer (25 mM HEPES pH 7.3, 100 mM NaCl, 0.01% Triton X-100) containing 5.28 nM cyclophilin was added into a flat, clear-bottom, black 384-well plate pre-chilled in a Corning CoolBox at 2–3 °C. Five microliters of compound pre-dissolved in 5% DMSO/assay buffer was then added to appropriate wells and incubated at 2–3 °C for 5 min. Five microliters of 0.5 mM α-chymotrypsin from bovine pancreas (Type II, lyophilized powder, Millipore-Sigma) in 20% 1 mM HCl/Assay Buffer was then added to each well and incubated at 2–3 °C for 5 min. The plate was then quickly transferred to a FLIPR Tetra High-Throughput Cellular Screening System (Molecular Devices). Using the internal liquid handling system of the FLIPR, 1 µL 0.5 mM Suc-AAPF-AMC (Chymotrypsin Substrate II, Millipore-Sigma) dissolved in 0.55 M LiCl/2,2,2-trifluoroethanol was added to each well, which was then mixed for 5 s, followed by immediate fluorescence measurements every 1 s for 330 s using a 360–380 nm excitation LED module and a 400–460 nm emission filter. Final concentrations of the plate include 5 nM cyclophilin, 0.25% DMSO, 25 µM α-chymotrypsin, 5 µM Suc-AAPF-AMC. Raw fluorescence data was analyzed by non-linear regression analysis with Prism v.9 by fitting one-phase association curves to each well. […] Rate constants calculated for each well (s^−1) were then normalized to substrate only (no prolyl-isomerase) and enzyme + substrate only controls. IC50 values were calculated as the value at which 50% inhibition was achieved on the non-linear regression fitted curve of each compound.

CypD = CypD (Homo sapiens, UniProt P30405); experiment: Chymotrypsin coupled prolyl-isomerase assay
Chain of CypD (P30405 45-207): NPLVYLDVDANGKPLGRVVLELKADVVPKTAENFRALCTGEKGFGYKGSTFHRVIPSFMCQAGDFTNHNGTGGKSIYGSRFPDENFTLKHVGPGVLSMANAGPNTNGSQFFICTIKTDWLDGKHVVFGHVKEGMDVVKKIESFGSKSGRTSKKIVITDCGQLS
Description: as §1, with “Five” for “Adapting a previously described protocol, with an Agilent Bravo Velocity 11 with a 384ST head, 90 µL assay buffer (25 mM HEPES pH 7.3, 100 mM NaCl, 0.01% Triton X-100) containing 5.28 nM cyclophilin was added into a flat, clear-bottom, black 384-well plate pre-chilled in a Corning CoolBox at 2–3 °C. Five”, “Final concentrations of the plate include 5 nM cyclophilin, 0.25% DMSO, 25 µM α-chymotrypsin, 5 µM Suc-AAPF-AMC.” left out, “controls.” for “controls. IC50 values were calculated as the value at which 50% inhibition was achieved on the non-linear regression fitted curve of each compound.”

NKTR = biological target: T1, NKTR (Homo sapiens, UniProt P30414); experiment: Chymotrypsin coupled prolyl-isomerase assay; type: biochemical
T1 construct: NKTR (UniProtKB Entry P30414: residues 7–179); host or cells: E. coli BL21(DE3)
T1 sequence (P30414 7-179): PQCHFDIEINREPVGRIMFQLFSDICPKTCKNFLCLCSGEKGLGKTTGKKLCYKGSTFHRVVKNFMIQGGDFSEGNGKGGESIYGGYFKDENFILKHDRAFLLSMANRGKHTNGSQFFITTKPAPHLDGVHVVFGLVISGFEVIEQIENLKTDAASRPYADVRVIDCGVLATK
Description: Adapting a previously described protocol[51], with an Agilent Bravo Velocity 11 with a 384ST head, 90 µL assay buffer (25 mM HEPES pH 7.3, 100 mM NaCl, 0.01% Triton X-100) containing 5.28 nM cyclophilin was added into a flat, clear-bottom, black 384-well plate pre-chilled in a Corning CoolBox at 2–3 °C. Five microliters of compound pre-dissolved in 5% DMSO/assay buffer was then added to appropriate wells and incubated at 2–3 °C for 5 min. Five microliters of 0.5 mM α-chymotrypsin from bovine pancreas (Type II, lyophilized powder, Millipore-Sigma) in 20% 1 mM HCl/Assay Buffer was then added to each well and incubated at 2–3 °C for 5 min. […] Using the internal liquid handling system of the FLIPR, 1 µL 0.5 mM Suc-AAPF-AMC (Chymotrypsin Substrate II, Millipore-Sigma) dissolved in 0.55 M LiCl/2,2,2-trifluoroethanol was added to each well, which was then mixed for 5 s, followed by immediate fluorescence measurements every 1 s for 330 s using a 360–380 nm excitation LED module and a 400–460 nm emission filter. Final concentrations of the plate include 5 nM cyclophilin, 0.25% DMSO, 25 µM α-chymotrypsin, 5 µM Suc-AAPF-AMC. Raw fluorescence data was analyzed by non-linear regression analysis with Prism v.9 by fitting one-phase association curves to each well. Analyses were halted after the calculated maximum fluorescent value owing to observed fluorescent bleaching during the sustained fluorescent plateau. Rate constants calculated for each well (s^−1) were then normalized to substrate only (no prolyl-isomerase) and enzyme + substrate only controls. IC50 values were calculated as the value at which 50% inhibition was achieved on the non-linear regression fitted curve of each compound.

PPWD1 = biological target: T2, PPWD1 (Homo sapiens, UniProt Q96BP3); experiment: Chymotrypsin coupled prolyl-isomerase assay; type: biochemical
T2 construct: PPWD1 (UniProtKB Entry Q96BP3: residues 473–646); host or cells: E. coli BL21(DE3)
T2 sequence (Q96BP3 473-646): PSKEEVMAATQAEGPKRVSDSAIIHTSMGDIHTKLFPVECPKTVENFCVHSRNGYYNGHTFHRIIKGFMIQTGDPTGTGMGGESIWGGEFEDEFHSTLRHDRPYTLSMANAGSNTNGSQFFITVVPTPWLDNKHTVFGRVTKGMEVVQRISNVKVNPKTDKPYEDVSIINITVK

CypA = biological target: T3, CypA (Homo sapiens, UniProt P62937); experiment: Chymotrypsin coupled prolyl-isomerase assay; type: biochemical; settings: wild-type CypA; read-out: Wild-Type Cyclophilin Prolyl Isomerase Inhibition IC50 Values, CypA
T3 construct: PPIA (UniProtKB Entry P62937: residues 1–165); made in house; host or cells: E. coli BL21(DE3)
T3 sequence (P62937 whole entry, the tested form may be a part): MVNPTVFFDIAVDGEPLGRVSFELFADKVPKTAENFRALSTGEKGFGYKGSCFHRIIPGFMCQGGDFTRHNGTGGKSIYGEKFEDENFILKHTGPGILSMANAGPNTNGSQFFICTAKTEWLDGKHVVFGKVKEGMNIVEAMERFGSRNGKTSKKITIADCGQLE
Description: as §1

CypG = biological target: T4, CypG (Homo sapiens, UniProt Q13427); experiment: Chymotrypsin coupled prolyl-isomerase assay; type: biochemical; settings: wild-type CypG; read-out: Wild-Type Cyclophilin Prolyl Isomerase Inhibition IC50 Values, CypG
T4 construct: PPIG (UniProtKB Entry Q13427: residues 1–179); His6 with thrombin site (pET28a LIC leader) (N); host or cells: E. coli BL21(DE3)
T4 sequence (Q13427 1-179): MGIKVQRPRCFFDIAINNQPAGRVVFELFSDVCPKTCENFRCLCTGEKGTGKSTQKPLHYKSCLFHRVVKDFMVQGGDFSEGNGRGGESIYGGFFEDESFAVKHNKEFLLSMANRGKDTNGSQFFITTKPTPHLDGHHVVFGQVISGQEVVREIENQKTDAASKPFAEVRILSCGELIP
Description: as §1

CypH = biological target: T5, CypH (Homo sapiens, UniProt O43447); experiment: Chymotrypsin coupled prolyl-isomerase assay; type: biochemical
T5 construct: PPIH (UniProtKB Entry O43447: residues 1–177); His6 with TEV site (2BT vector leader) (N); made in house; host or cells: E. coli BL21(DE3)
T5 sequence (O43447 whole entry, the tested form may be a part): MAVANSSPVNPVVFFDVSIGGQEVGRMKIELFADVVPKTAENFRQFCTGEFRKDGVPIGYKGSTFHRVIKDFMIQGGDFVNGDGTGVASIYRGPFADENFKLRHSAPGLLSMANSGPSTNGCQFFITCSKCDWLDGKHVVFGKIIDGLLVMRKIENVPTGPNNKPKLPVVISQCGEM
Description: as §1

CypE = biological target: T6, CypE (Homo sapiens, UniProt Q9UNP9); experiment: Chymotrypsin coupled prolyl-isomerase assay; type: biochemical; settings: wild-type CypE; read-out: Wild-Type Cyclophilin Prolyl Isomerase Inhibition IC50 Values, CypE
T6 construct: PPIE (UniProtKB Entry Q9UNP9: residues 131–301); host or cells: E. coli BL21(DE3)
T6 sequence (Q9UNP9 131-301): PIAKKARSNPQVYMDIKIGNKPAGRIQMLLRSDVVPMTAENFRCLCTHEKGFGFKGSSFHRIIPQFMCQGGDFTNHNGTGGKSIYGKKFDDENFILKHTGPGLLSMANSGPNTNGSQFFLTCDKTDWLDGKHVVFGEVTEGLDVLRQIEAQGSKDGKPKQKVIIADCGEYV
Description: as §1

CypC = biological target: T7, CypC (Homo sapiens, UniProt P45877); experiment: Chymotrypsin coupled prolyl-isomerase assay; type: biochemical
T7 construct: PPIC (UniProtKB Entry P45877: residues 24–212); host or cells: E. coli BL21(DE3)
T7 sequence (P45877 24-212): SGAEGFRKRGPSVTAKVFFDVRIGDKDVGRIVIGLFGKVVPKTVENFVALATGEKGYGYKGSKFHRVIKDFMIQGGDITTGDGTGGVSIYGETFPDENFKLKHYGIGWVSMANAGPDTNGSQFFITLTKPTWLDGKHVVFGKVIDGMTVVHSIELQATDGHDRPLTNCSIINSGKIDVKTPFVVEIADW
Description: as §1

CypB = biological target: T8, CypB (Homo sapiens, UniProt P23284); experiment: biochemical; settings: wild-type CypB; read-out: Wild-Type Cyclophilin Prolyl Isomerase Inhibition IC50 Values, CypB
T8 construct: PPIB (UniProtKB Entry P23284: residues 34–216); His6 with TEV site (2BT vector leader) (N); made in house; host or cells: E. coli BL21(DE3)
T8 sequence (P23284 34-216): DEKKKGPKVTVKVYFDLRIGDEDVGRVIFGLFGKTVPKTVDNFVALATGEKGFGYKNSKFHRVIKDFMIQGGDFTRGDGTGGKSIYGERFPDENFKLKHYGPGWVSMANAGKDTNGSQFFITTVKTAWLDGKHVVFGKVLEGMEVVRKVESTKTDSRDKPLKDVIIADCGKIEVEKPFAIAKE
Description: as §1

PPIL1 = biological target: T9, PPIL1 (Homo sapiens, UniProt Q9Y3C6); experiment: Chymotrypsin coupled prolyl-isomerase assay; type: biochemical; settings: wild-type PPIL1; read-out: Wild-Type Cyclophilin Prolyl Isomerase Inhibition IC50 Values, PPIL1
T9 construct: PPIL1 (UniProtKB Entry Q9Y3C6: residues 1–166); made in house; host or cells: E. coli BL21(DE3)
T9 sequence (Q9Y3C6 1-166): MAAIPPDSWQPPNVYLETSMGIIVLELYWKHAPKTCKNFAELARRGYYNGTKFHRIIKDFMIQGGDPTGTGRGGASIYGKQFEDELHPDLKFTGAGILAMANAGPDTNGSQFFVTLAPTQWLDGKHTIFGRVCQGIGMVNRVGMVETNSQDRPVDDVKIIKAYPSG

HeLa cells = experiment: Fluorescence microscopy of Cy5-conjugated compounds; type: cell-based, human
Description: Cells were seeded into 96-well, black, clear-bottom, TC-treated plates, in DMEM supplemented with 10% FBS 24 h prior at a density where wells were ~80% confluent at the time of the experiment. Medium was removed and cells were then stained with 50 µL mixture containing Cy5-labeled compound (6 µM) in Kreb’s ringer solution HEPES buffered pH 7.2 (KRB), for 1 h at 37 °C. Then, 50 µL Hoechst 33342 (8 µM) and Mitotracker Green FM (0.1 µM) in KRB was added directly to wells containing cells and incubated for 15 min at 37 °C. Medium was removed and cells were washed twice with 100 µL KRB. Cells were then kept adherent to the wells in 100 µL KRB for imaging. Fluorescence microscopy was conducted on an Opera Phenix Plus High-Content Screening System, using Alexa 488, Alexa 647, and Hoescht 33342 channels. Images were analyzed using Harmony v.4.9.

[1] = Wild-Type Cyclophilin Prolyl Isomerase Inhibition IC50 Values, Cyp40, wild-type Cyp40
[2] = Wild-Type Cyclophilin Prolyl Isomerase Inhibition IC50 Values, CypD, wild-type CypD
[3] = wild-type NKTR, read-out: Wild-Type Cyclophilin Prolyl Isomerase Inhibition IC50 Values, NKTR
[4] = prolyl-isomerase inhibition, 5 nM cyclophilin, read-out: IC50 PPWD1
[5] = wild-type PPWD1, read-out: Wild-Type Cyclophilin Prolyl Isomerase Inhibition IC50 Values, PPWD1
[6] = wild-type CypH, read-out: Wild-Type Cyclophilin Prolyl Isomerase Inhibition IC50 Values, CypH
[7] = wild-type CypC, read-out: Wild-Type Cyclophilin Prolyl Isomerase Inhibition IC50 Values, CypC
[8] = read-out: Wild-Type Cyclophilin Prolyl Isomerase Inhibition IC50 Values, Cyp40, wild-type Cyp40
[9] = read-out: IC50 CypD, prolyl-isomerase inhibition, 5 nM cyclophilin, Suc-AAPF-AMC, mean±s.e.m. of 3 technical replicates (B52, B53, C3A wild-type: mean±s.d. of 4 independent replicates)
[10] = prolyl-isomerase inhibition, 5 nM cyclophilin, read-out: IC50 CypH

Chain of Cyp40 (Q08752 1-183): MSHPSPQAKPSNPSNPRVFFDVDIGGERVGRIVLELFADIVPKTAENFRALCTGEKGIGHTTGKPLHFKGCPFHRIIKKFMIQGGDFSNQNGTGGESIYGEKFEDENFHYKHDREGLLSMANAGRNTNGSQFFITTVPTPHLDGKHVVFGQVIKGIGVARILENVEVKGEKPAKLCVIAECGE

SMILES	IC50 (Cyp40; [1]) [nM]	IC50 (NKTR; [3]) [nM]	IC50 (PPWD1; [5]) [nM]	IC50 (CypA) [nM]	IC50 (CypG) [nM]	IC50 (CypH; [6]) [nM]	IC50 (CypE) [nM]	IC50 (CypC; [7]) [nM]	IC50 (CypB) [nM]	IC50 (PPIL1) [nM]	IC50 (CypD; [9]) [nM]	further results
NCCOCCNC(=O)C1CCNC(=O)C=CC(=O)N2CCCC(C2)C(=O)NC(Cc2ccc(C(=O)c3ccccc3)cc2)C(=O)NCc2ccccc2CC(=O)N1 (stereo not shown) [Compound A14]	3000	> 100000	100000	19000	> 100000	> 100000	13000	9000	2700	10000		IC50 (CypD; [2]): 3800 nM; IC50 (PPWD1; [4]): ~100000 nM
CC12CCCN(C1)C(=O)C=CC(=O)NCCC(C(=O)NCCOCCN)NC(=O)Cc1ccccc1CNC(=O)C(Cc1ccco1)NC2=O (stereo not shown) [Compound A25]	2600	8000	40000	16000	1900	24000	14000	6500	900	11000		IC50 (CypD; [2]): 3600 nM
NCCOCCNC(=O)C1CCNC(=O)C=CC(=O)N2CCCC(Cc3ccccc3)(C2)C(=O)NC(Cc2ccco2)C(=O)NCc2ccccc2CC(=O)N1 (stereo not shown) [Compound A26]	400	4200	3400	1100	840	2700	800	530	100	600		IC50 (CypD): 200 nM; increase of CypD potency relative to JOMBt (CypD): 85 fold
CC(=O)c1ccc(-c2ccc(C[C@@H]3NC(=O)[C@]4(Cc5ccccc5)CCCN(C4)C(=O)/C=C/C(=O)NCC[C@@H](C(=O)NCCOCCN)NC(=O)Cc4ccccc4CNC3=O)cc2)cc1 [Compound B15]		4900	880	400	1800	80000	150	380	80	100	38	IC50 (Cyp40; [8]): 60 nM; preference for CypD over CypC and Cyp40 (CypD): 2- to 20 fold; IC50 (CypH; [10]): ~80000 nM
NCCOCCNC(=O)[C@@H]1CCNC(=O)/C=C/C(=O)N2CCC[C@](Cc3ccccc3)(C2)C(=O)N[C@@H](Cc2ccc(-c3ccc(C(=O)O)cc3)cc2)C(=O)NCc2ccccc2CC(=O)N1 [Compound B20]		> 100000	> 100000	3100	> 100000	> 100000	1600	60000	2000	1400	300	IC50 (Cyp40): 2600 nM; preference for CypD over CypC and Cyp40 (CypD): at least ninefold; IC50 (CypC; prolyl-isomerase inhibition, 5 nM cyclophilin, read-out: IC50 CypC): ~60000 nM
NCCOCCNC(=O)[C@@H]1CCNC(=O)/C=C/C(=O)N2CCC[C@](Cc3ccccc3)(C2)C(=O)N[C@@H](Cc2ccc(-c3ccc(CC(=O)O)cc3)cc2)C(=O)NCc2ccccc2CC(=O)N1 [Compound B22]		> 100000	50000	700	10000	100000	130	14000	230	600	40	IC50 (Cyp40; [8]): 1000 nM; IC50 (PPWD1; [4]): ~50000 nM; IC50 (CypH; [10]): ~100000 nM
NCCOCCNC(=O)[C@@H]1CCNC(=O)/C=C/C(=O)N2CCC[C@](Cc3ccccc3)(C2)C(=O)N[C@@H](Cc2ccc(-c3ccc(/C=C/C(=O)O)cc3)cc2)C(=O)NCc2ccccc2CC(=O)N1 [Compound B24]		13000	6000	10	11000	> 50000	4	1500	5	20	1.9	IC50 (Cyp40): 150 nM; IC50 (NKTR; prolyl-isomerase inhibition, 5 nM cyclophilin, read-out: IC50 NKTR): ~13000 nM
CC(=O)NCCNC(=O)CCCCCN1\C(=C/C=C/C=C/C2=[N+](C)c3ccccc3C2(C)C)C(C)(C)c2ccccc21 [Cy5-enAc, reference compound]											> 2000	plasma membrane permeability / mitochondrial localization (in words) (HeLa cells): good mitochondrial localization
